System: human foetal foreskin fibroblasts (HFFF2)
Test: Responsiveness of the in1360 genome to Trichostatin A: β-galactosidase activity in infected HFFF2 cells
Type: cell-based
Protocol: Trichostatin A (TSA) is an agent that inhibits deacetylases. When it is added to cells, histones and other proteins involved in transcriptions become hyperacetylated, because they are not deacetylated. This frequently results in activation of gene expression. In the case of HSV-1 mutants, the genome is not responsive to TSA once the quiescent state has been established. Monolayers of HFFF2 cells were infected with in1360 and maintained at 38.5° C. At 8 days after infection, cells were either untreated or treated with 660 nM TSA. After maintenance at 38.5° C. for a further 2 days, extracts were made and β-galactosidase activities were measured. The extracts from untreated cells gave a value of 121 units (range 113-129), whereas extracts from TSA-treated cells gave a value of 806 unites (range 739-873), a stimulation of 6.7-fold.

CC(/C=C/C(=O)NO)=C\[C@@H](C)C(=O)c1ccc(N(C)C)cc1 [TSA, Trichostatin A]
β-galactosidase activity, extracts from TSA-treated cells (660 nM TSA added 8 days after infection, a further 2 days at 38.5° C., range 739-873): 806 unites | effect of TSA on X-gal stained cells (in words) (660 nM TSA for 2 days, 10 days after infection): increased the number of positive cells and the intensity of straining | stimulation of β-galactosidase activity by TSA (660 nM TSA versus untreated): 6.7 fold

Reference: US20040248300A1, “Enhanced gene expression using vectors” (priority 2001, published 2004)
